Test results as given in patent publication US20160256515A1, “COMPOSITIONS AND METHODS FOR PREDICTION AND TREATMENT OF HUMAN CYTOMEGALOVIRUS INFECTIONS” (THE JOHNS HOPKINS UNIVERSITY, priority 2013, published 2016).
Where two headings read alike, the source gives them in different places.

Assays:
human CMV (HCMV) = assay: CMV plaque numbers in human fibroblasts after pre-treatment; type: cell-based, human cytomegalovirus; conditions: pre-treatment of human fibroblasts followed by CMV infection
IFN-β = IFN-β response (qPCR, ELISA) after pretreatment and CMV infection; type: cell-based, human
Description: RNA isolation and real time quantitative reverse transcriptase (qRT) PCR: Total RNA was isolated from cultured cells using RNeasy Mini kit (Qiagen, Georgetown, Md.) according to manufacturer's instructions. RevertAid first strand cDNA synthesis kit (Fermentas life sciences, Cromwell Park, Md.) was used to synthesize first strand cDNA from total RNA using oligo-dT primers. Negative reverse-transcriptase (−RT) reactions were included to ensure the specificity of qRT-PCR reactions. Synthesis of first strand cDNA from mRNA template was carried out at 42° C. for 1 h. Quantitative RT-PCR (qRT-PCR) was performed using specific primers and SYBER green (Fermentas life science) with two-step cycling protocol (95° C. for 15 s, 60° C. for 1 min). Reactions were performed in triplicates and GAPDH was used as internal control. mRNA levels in HCMV-infected cells were normalized to the mRNA produced in non-infected HFFs in addition to the internal normalization of each sample to GAPDH. The primers and gene targets appear in Table 1.
ELISA: Human interferon β (IFN-β) specific ELISA kit (PBL Interferon Source) was used to measure levels of secreted IFN-β from HFF-control and HFF-NOD2 overexpressing cells according to manufacturer's instructions.

NOD2 mRNA = type: cell-based, human; conditions: non-infected HFFs, MDP 10 μg/ml

SMILES	plaque numbers (human CMV (HCMV))	interferon response (IFN-β) (IFN-β; pretreatment)	mRNA and protein expression of IFN-β (IFN-β; pretreatment followed by CMV infection, qPCR and ELISA)	IFN-β responses in NOD2 KD cells (IFN-β; treatment in NOD2 KD cells)	induction of NOD2 expression (NOD2 mRNA; 12 h)	induction of NOD2 expression (NOD2 mRNA; 72 h)
C[C@H](N)C(=O)N[C@H](CCC(=O)NC(CCCC(N)C(=O)O)C(=O)O)C(=O)O (stereo partly drawn) [tri-DAP, L-Ala-γ-D-Glu-mDAP]	significant reduction	enhanced	increased	can initiate independent IFN-β responses	–	–
CC(=O)N[C@H]1C(O)O[C@H](CO)[C@@H](O)[C@@H]1O[C@H](C)C(=O)N[C@@H](C)C(=O)N[C@H](CCC(=O)O)C(N)=O (mixture of isomers) [MDP, muramyl dipeptide]	–	–	–	–	two fold	1400 fold
